Results: the NIST ThermoML archive (doi:10.1021/je025625m)

Assay: excess molar enthalpy (molar enthalpy of mixing); xn = mol fraction of the nth substance listed
Conditions: 298.15 K, 101 kPa, Liquid

CCCCCCCl [1-chlorohexane] + c1ccccc1
Conditions	excess molar enthalpy [kcal/mol]
x2 = 0.0723	0.00146
x2 = 0.0744	0.0017
x2 = 0.0805	0.00146
x2 = 0.0888	0.00167
x2 = 0.1407	0.00311
x2 = 0.1427	0.00351
x2 = 0.1437	0.00351
x2 = 0.2125	0.00538
x2 = 0.2862	0.00791
x2 = 0.3323	0.00992
x2 = 0.394	0.0127
x2 = 0.4431	0.0156
x2 = 0.5015	0.0189
x2 = 0.5375	0.0208
x2 = 0.541	0.0208
x2 = 0.5524	0.0218
x2 = 0.582	0.0229
x2 = 0.6153	0.0245
x2 = 0.6575	0.0256
x2 = 0.7164	0.0265
x2 = 0.7288	0.0266
x2 = 0.7352	0.0262
x2 = 0.7928	0.025
x2 = 0.8215	0.0242
x2 = 0.8484	0.0224
x2 = 0.8629	0.0207
x2 = 0.894	0.0174
x2 = 0.9274	0.0132
x2 = 0.9535	0.00918
